Results reported in patent publication US9993482B2, “Pharmaceutical combination comprising a class III receptor tyrosine kinase inhibitor and the alkylating histone-deacetylase inhibitor fusion molecule EDO-S101 together with its use in the treatment of cancer” (priority 2014, dated 2018).
Like-named read-outs stand apart in the source and are kept apart here.

Key:
[1] = tested on: acute myeloid leukemia cell line MV-4-11; assay: MV-4-11 cell survival, CellTiter-Glo, single drug testing; format: cell-based; conditions: Homo sapiens, MV4-11, 72 h
Experimental: Culture media was purchased from GIBCO, USA.
(§1) Equipment used was the EnVision Multi Label Reader, PerkinElmer (USA). CO2 Water Jacketed Incubator, Therma (USA). Reverse microscope, Chongguang XDS-1B, Chongqing Guangdian Corp. (Chongqing, P.R.China).
(§2) The cells were harvested respectively during the logarithmic growth period and counted with a hemocytometer.
(§3) For single drug testing, the cell concentrations were adjusted to 4.44×10^4 cells/ml with the medium supplemented with 10% FBS. 90 μl cell suspensions were added to 96-well plates, such that the final cell density was 4×10^3 cells/well. The appropriate cell density was determined and adjusted according to the results of our first test.
The next day, 10 μl (10×) of drug solution was prepared and dispensed in each well (triplicate for each drug concentration). […] The contents were mixed for 2 minutes on an orbital shaker to induce cell lysis. The plate was allowed to incubate at room temperature for 10 minutes to stabilize the luminescent signal. Finally, the luminescence was recorded using an EnVision Multi Label Reader.
(§4) In order to calculate IC50, a dose-responsive curve was fitted using nonlinear regression model with a sigmoidal dose response. The formula of surviving rate is shown below, and the IC50 was automatically produced by GraphPad Prism 5.0.

[2] = tested on: acute myeloid leukemia cell line MV-4-11; assay: MV-4-11 cell survival, CellTiter-Glo, two drug combination testing (CalcuSyn); format: cell-based; conditions: MV-4-11, 72 h, combination ratio 1:0.00120494
Experimental: (§5) The acute myeloid leukemia cell line MV-4-11 (obtained from the ATCC) was cultured in media supplemented with 10% fetal bovine serum (FBS) at a temperature of 37° C., 5% CO2 and 95% humidity. Culture media was purchased from GIBCO, USA. The cells were plated out in 96-Well Flat Clear Bottom Black Polystyrene TC-Treated Microplates (Cat#3603, Corning®).
as §1
(§6) The cells were harvested respectively during the logarithmic growth period and counted with a hemocytometer. The cell viability is over 98% by trypan blue exclusion.
(§7) For two drug combination testing, the cell concentrations were adjusted to 5.00×10^4/ml with the medium supplemented with 10% FBS. 80 μl cell suspensions were added to 96-well plates, such that the final cell densities were 4×10^3 cells/well. The appropriate cell density was determined and adjusted according to the results of our first test.
The next day, 10 μl (10×) of each drug solution was prepared and dispense in each well simultaneously (triplicate for each concentration). After 72 h incubation, 100 μL […]-GLO® Reagent was added to each well. The contents were mixed for 2 minutes on an orbital shaker to induce cell lysis. The plate was allowed to incubate at room temperature for 10 minutes to stabilize luminescent signal. Then the luminescence was recorded using EnVision Multi Label Reader.
as §4, with “5.0. The surviving rate (%)=(LumTest article−LUMMedium control)/(LUMNone treated−LUMMedium control)×100%.” for “5.0.”
(§8) Compound interactions were calculated by multiple drug effect analysis and performed by the median equation principle with CalcuSyn software from the mean affected fraction at each drug ratio concentration of each drug according to the methodology described by Chou and Talalay (Chou et al., Adv. Enzyme Regul., 22, 27-55 (1984)), that calculates a combination index (CI) with the following interpretation: • CI>1: antagonist effect, CI=1: additive effect and CI<1 synergistic effect.
(§9) The CI was calculated from the mean affected fraction at each drug ratio concentration of each drug.

[3] = tested on: acute myeloid leukemia cell line MOLM-13; assay: MOLM-13 cell survival, CellTiter-Glo, single drug testing; format: cell-based; conditions: Homo sapiens, MOLM-13, 72 h
Experimental: as §5, with “MOLM-13” for “MV-4-11”, “FBS” for “fetal bovine serum (FBS)”, “[…]” for “TC-Treated”
as §1, §2, §3
The next day, 10 μl (10×) of drug solution was prepared and dispensed in each well (triplicate for each drug concentration). After 72 h incubation, 100 μl CellTiter-Glow Reagent was added to each well. The contents were mixed for 2 minutes on an orbital shaker to induce cell lysis. The plate was allowed to incubate at room temperature for 10 minutes to stabilize the luminescent signal. Finally, the luminescence was recorded using an EnVision Multi Label Reader.
as §4, with “5.0. The surviving rate (%)=(LumTest article−LUMMedium control)/(LumNone treated−LUMMedium control)×100%.” for “5.0.”

[4] = tested on: acute myeloid leukemia cell line MOLM-13; assay: MOLM-13 cell survival, CellTiter-Glo, two drug combination testing (CalcuSyn); format: cell-based; conditions: MOLM-13, 72 h, combination ratio 1:0.00264302
Experimental: as §5, with “MOLM-13” for “MV-4-11”, “FBS” for “fetal bovine serum (FBS)”, “[…]” for “TC-Treated”
as §1, §6, §7
The next day, 10 μl (10×) of each drug solution was prepared and dispense in each well simultaneously (triplicate for each concentration). After 72 h incubation, 100 μl CellTiter-Glo® Reagent was added to each well. The contents were mixed for 2 minutes on an orbital shaker to induce cell lysis. The plate was allowed to incubate at room temperature for 10 minutes to stabilize luminescent signal. Then the luminescence was recorded using EnVision Multi Label Reader.
as §4, with “5.0. The surviving rate (%)=(LumTest article−LUMMedium control)/(LumNone treated−LUMMedium control)×100%.” for “5.0.”
as §8, with “Talalay,” for “Talalay (Chou et al., Adv. Enzyme Regul., 22, 27-55 (1984)),”
as §9

[5] = tested on: multiple myeloma cell lines; conditions: in vitro; cited from earlier work

SMILES | IC50 [1] | DRI values at ED75 [2] | DRI values at ED90 [2] | IC50 ([3]; FIG. 3 single drug test using different doses (at 1:2 serial dilutions)) | IC50 ([3]; FIG. 3 single drug test with cisplatin control) | DRI values at ED75 [4] | DRI values at ED90 [4] | activity relative to bendamustin (times greater) [5] | IC50 ([1]; read-out: IC50) | IC50 ([3]; FIG. 3 single drug test using different doses (at 1:2 serial dilutions), read-out: IC50) | IC50 ([3]; FIG. 3 single drug test with cisplatin control, read-out: IC50)
Cn1c(CCCCCCC(=O)NO)nc2cc(N(CCCl)CCCl)ccc21 [EDO-S101] | 668 nM | 1.368 | 1.482 | 1720 nM | 708 nM | 5.925 | 8.534 | 35-100 | – | – | –
CC(C)(C)c1cc(NC(=O)Nc2ccc(-c3cn4c(n3)sc3cc(OCCN5CCOCC5)ccc34)cc2)no1 [quizartinib, reference compound] | – | 6.146 | 10.760 | – | – | 3.215 | 6.645 | – | 0.804 nM | 4.55 nM | 2.11 nM
